These results are taken from BindingDB's records for doi:10.1021/jm00018a001 (Smithkline Beecham Pharmaceuticals, 1995).

The structures appear in SMILES notation.

The target in assay [1] is Alpha-1B adrenergic receptor (Mesocricetus auratus) (UniProt P18841). Briefly: Binding affinity against Alpha-1B adrenergic receptor from hamster clones.
The target is the same in assay [2]. Briefly: The compound was tested for binding affinity against Alpha-1B adrenergic receptor, from hamster clones.

Chain of Alpha-1B adrenergic receptor (Mesocricetus auratus) (P18841 whole entry, looked up): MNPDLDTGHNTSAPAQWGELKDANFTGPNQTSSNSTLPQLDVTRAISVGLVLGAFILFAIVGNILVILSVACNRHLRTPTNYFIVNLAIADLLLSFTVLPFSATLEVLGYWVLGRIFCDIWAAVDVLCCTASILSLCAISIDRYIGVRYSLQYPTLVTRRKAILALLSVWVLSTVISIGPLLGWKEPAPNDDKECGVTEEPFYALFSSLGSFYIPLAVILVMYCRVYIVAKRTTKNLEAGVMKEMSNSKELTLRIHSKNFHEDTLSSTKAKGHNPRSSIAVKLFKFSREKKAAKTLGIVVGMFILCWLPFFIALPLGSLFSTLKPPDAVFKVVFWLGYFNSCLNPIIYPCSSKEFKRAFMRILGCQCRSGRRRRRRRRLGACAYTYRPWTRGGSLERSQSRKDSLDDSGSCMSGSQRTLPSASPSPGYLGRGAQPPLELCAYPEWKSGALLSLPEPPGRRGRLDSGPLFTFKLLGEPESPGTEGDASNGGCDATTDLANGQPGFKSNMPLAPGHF

Usually Ki stands for the equilibrium dissociation constant of an inhibitor or competing ligand from its target. A higher Ki goes with a looser hold on the target. Turning to `COc1cc2nc(N(C)CCCNC(=O)C3CCCO3)nc(N)c2cc1OC` (stereo not drawn) [N-{3-[(4-amino-6,7-dimethoxyquinazolin-2-yl)(methyl)amino]propyl}tetrahydrofuran-2-carboxamide], in assay [1], the Ki was 12 nM.

As for `COc1cc2c(cc1OC)CN(c1cc(N)c3cc(OC)c(OC)cc3n1)CC2`, affinity in assay [1] was put at a Ki of 0.11 nM.

In the case of `O=C(NC1CCN(CCc2c[nH]c3ccccc23)CC1)c1ccccc1` [N-{1-[2-(1H-Indol-3-yl)-ethyl]-piperidin-4-yl}-benzamide(indoramin)], in assay [2], affinity was put at a Ki of 25 nM.
